Test results taken from ChEMBL document CHEMBL3885881, “DrugMatrix”.

Species on record: Rattus norvegicus
Assay: DrugMatrix - Regimen: Daily Repeat
Type: toxicity, organism-based, Sprague-Dawley
Parameters: regimen Daily Repeat, gender Male, age 6-8 weeks
Conditions: in vivo, ip, 0 mg/kg, route intraperitoneal, dose level Control, vehicle 100 % SALINE; for ABSOLUTE BASOPHIL / ABSOLUTE EOSINOPHIL / ABSOLUTE LYMPHOCYTE / ABSOLUTE MONOCYTE / ABSOLUTE SEGMENTED NEUTROPHIL / BASOPHIL / EOSINOPHIL / ERYTHROCYTE COUNT / HEMATOCRIT / HEMOGLOBIN / LEUKOCYTE COUNT / LYMPHOCYTE / MEAN CORPUSCULAR HEMOGLOBIN / MEAN CORPUSCULAR HEMOGLOBIN CONCENTRATION / MEAN CORPUSCULAR VOLUME / MONOCYTE / NEUTROPHIL / PLATELET COUNT: tissue Blood
[1] = 120 h, tissue Plasma, time 5 day
[2] = […], tissue Plasma, time 14 day
[3] = […], tissue Plasma, time 28 day

Sequence: TRANSPLATIN
- ABSOLUTE BASOPHIL (120 h, time 5 day): 32 cells/µL
- ABSOLUTE EOSINOPHIL (120 h, time 5 day): 110 cells/µL
- ABSOLUTE LYMPHOCYTE (120 h, time 5 day): 6630 cells/µL
- ABSOLUTE MONOCYTE (120 h, time 5 day): 140 cells/µL
- ABSOLUTE SEGMENTED NEUTROPHIL (120 h, time 5 day): 1170 cells/µL
- BASOPHIL (120 h, time 5 day): 0.38%
- EOSINOPHIL (120 h, time 5 day): 1.28%
- ERYTHROCYTE COUNT (120 h, time 5 day): 7.45 x10E6/uL
- HEMATOCRIT (120 h, time 5 day): 45.74%
- HEMOGLOBIN (120 h, time 5 day): 14.72 G/DL
- LEUKOCYTE COUNT (120 h, time 5 day): 8.11 x10E3/uL
- LYMPHOCYTE (120 h, time 5 day): 81.3%
- MEAN CORPUSCULAR HEMOGLOBIN (120 h, time 5 day): 19.76 pg
- MEAN CORPUSCULAR HEMOGLOBIN CONCENTRATION (120 h, time 5 day): 32.16 G/DL
- MEAN CORPUSCULAR VOLUME (120 h, time 5 day): 61.38 fL
- MONOCYTE (120 h, time 5 day): 1.76%
- NEUTROPHIL (120 h, time 5 day): 14.9%
- PLATELET COUNT (120 h, time 5 day): 1322.4 x10E3/uL
- ALANINE AMINOTRANSFERASE [1]: 25.8 u/L
- ALBUMIN [1]: 3.64 G/DL
- ASPARTATE AMINOTRANSFERASE [1]: 81.4 u/L
- BLOOD UREA NITROGEN [1]: 14.4 mg/dL
- CHOLESTEROL [1]: 69.2 mg/dL
- CREATINE PHOSPHOKINASE [1]: 303.2 u/L
- CREATININE [1]: 0.56 mg/dL
- GLUCOSE [1]: 125.4 mg/dL
- LACTATE DEHYDROGENASE [1]: 105.4 u/L
- LIPASE [1]: 22.4 u/L
- POTASSIUM [1]: 5.52 MEQ/L
- SODIUM [1]: 147 MEQ/L
- TOTAL BILIRUBIN [1]: 0.2 mg/dL
- TOTAL PROTEIN [1]: 6.1 G/DL
- URIC ACID [1]: 1.06 mg/dL
- ABSOLUTE BASOPHIL ([…], time 14 day): 130 cells/µL
- ABSOLUTE EOSINOPHIL ([…], time 14 day): 140 cells/µL
- ABSOLUTE LYMPHOCYTE ([…], time 14 day): 13500 cells/µL
- ABSOLUTE MONOCYTE ([…], time 14 day): 400 cells/µL
- ABSOLUTE SEGMENTED NEUTROPHIL ([…], time 14 day): 2330 cells/µL
- BASOPHIL ([…], time 14 day): 0.72%
- EOSINOPHIL ([…], time 14 day): 0.86%
- ERYTHROCYTE COUNT ([…], time 14 day): 7.74 x10E6/uL
- HEMATOCRIT ([…], time 14 day): 45.98%
- LEUKOCYTE COUNT ([…], time 14 day): 16.61 x10E3/uL
- LYMPHOCYTE ([…], time 14 day): 81.34%
- MEAN CORPUSCULAR HEMOGLOBIN ([…], time 14 day): 18 pg
- MEAN CORPUSCULAR HEMOGLOBIN CONCENTRATION ([…], time 14 day): 30.22 G/DL
- MEAN CORPUSCULAR VOLUME ([…], time 14 day): 59.4 fL
- MONOCYTE ([…], time 14 day): 2.46%
- NEUTROPHIL ([…], time 14 day): 14.14%
- PLATELET COUNT ([…], time 14 day): 1445.5 x10E3/uL
- ABSOLUTE BASOPHIL ([…], time 28 day): 91 cells/µL
- ABSOLUTE EOSINOPHIL ([…], time 28 day): 110 cells/µL
- ABSOLUTE LYMPHOCYTE ([…], time 28 day): 9910 cells/µL
- ABSOLUTE MONOCYTE ([…], time 28 day): 210 cells/µL
- ABSOLUTE SEGMENTED NEUTROPHIL ([…], time 28 day): 1560 cells/µL
- BASOPHIL ([…], time 28 day): 0.77%
- EOSINOPHIL ([…], time 28 day): 0.92%
- ERYTHROCYTE COUNT ([…], time 28 day): 8.21 x10E6/uL
- HEMATOCRIT ([…], time 28 day): 47.53%
- HEMOGLOBIN ([…], time 28 day): 15.65 G/DL
- LEUKOCYTE COUNT ([…], time 28 day): 11.91 x10E3/uL
- LYMPHOCYTE ([…], time 28 day): 83.34%
- MEAN CORPUSCULAR HEMOGLOBIN ([…], time 28 day): 19.07 pg
- MEAN CORPUSCULAR HEMOGLOBIN CONCENTRATION ([…], time 28 day): 32.93 G/DL
- MEAN CORPUSCULAR VOLUME ([…], time 28 day): 57.9 fL
- MONOCYTE ([…], time 28 day): 1.68%
- NEUTROPHIL ([…], time 28 day): 12.97%
- PLATELET COUNT ([…], time 28 day): 1323.8 x10E3/uL
- ALANINE AMINOTRANSFERASE [2]: 31.6 u/L
- ALBUMIN [2]: 3.66 G/DL
- ALKALINE PHOSPHATASE [2]: 228.6 u/L
- ASPARTATE AMINOTRANSFERASE [2]: 79.6 u/L
- BLOOD UREA NITROGEN [2]: 11.2 mg/dL
- CHLORIDE [2]: 107 MEQ/L
- CHOLESTEROL [2]: 57 mg/dL
- CREATININE [2]: 0.5 mg/dL
- GLUCOSE [2]: 124.4 mg/dL
- LACTATE DEHYDROGENASE [2]: 106.4 u/L
- LIPASE [2]: 24.4 u/L
- PHOSPHORUS [2]: 10.52 mg/dL
- POTASSIUM [2]: 6.34 MEQ/L
- SODIUM [2]: 149.2 MEQ/L
- TOTAL BILIRUBIN [2]: 0.2 mg/dL
- TOTAL PROTEIN [2]: 6.48 G/DL
- URIC ACID [2]: 0.94 mg/dL
- ALANINE AMINOTRANSFERASE [3]: 30 u/L
- ALBUMIN [3]: 3.71 G/DL
- ALKALINE PHOSPHATASE [3]: 186.8 u/L
- ASPARTATE AMINOTRANSFERASE [3]: 78.2 u/L
- BLOOD UREA NITROGEN [3]: 14.2 mg/dL
- CHOLESTEROL [3]: 44.9 mg/dL
- CREATINE PHOSPHOKINASE [3]: 334.3 u/L
- CREATININE [3]: 0.6 mg/dL
- GLUCOSE [3]: 147.2 mg/dL
- LACTATE DEHYDROGENASE [3]: 123.1 u/L
- LIPASE [3]: 9.6 u/L
- PHOSPHORUS [3]: 10.01 mg/dL
- POTASSIUM [3]: 6.57 MEQ/L
- SODIUM [3]: 149.5 MEQ/L
- TOTAL BILIRUBIN [3]: 0.21 mg/dL
- TOTAL PROTEIN [3]: 6.66 G/DL
- URIC ACID [3]: 1.26 mg/dL
